Assay: Storage stability of the rapamycin derivative (bulk, in glass bottle), percent residual by HPLC
Assay type: physicochemical
Experimental: A biologically/physiologically active substance and a deoxidant were placed and sealed within a package. After stored at 40° C. for four weeks, the remaining amount of the biologically/physiologically active substance was measured by high speed liquid chromatography (HPLC) to determine its percent residue.
Biologically/physiologically active substance: A rapamycin derivative represented by the following chemical formula (I) (product of Nippon Kayaku Co., Ltd.). An aliquot (0.03 g) of the rapamycin derivative was placed in a glass bottle, and further, the glass bottle was placed within the below-described package.
Deoxidant: “ZH-100” (product of Mitsubishi Gas Chemical Co, Inc.). Two bags, the volume of each bag being sufficient for 100 mL, were placed and sealed within the package.
Package: An aluminum pouch in the form of a bag of a size of 300 mm in length, 300 mm in width and 0.1 mm in thickness, which was formed of a stacked structure of polyethylene terephthalate, low-density polyethylene, an aluminum film, low-density polyethylene and high-density polyethylene as materials.
After stored in the above-described state at 40° C. for four weeks, the biologically/physiologically active substance was taken out of the package and was provided as “Sample A1” for HPLC. […]
By the following equation, the percent residual of the rapamycin derivative in Sample A1 was determined. […]

CCOCCOC1CCC(CC(C)C2CC(=O)C(C)C(O)C(C)C(O)C(OC)C(=O)C(C)CC(C)/C=C/C=C/C=C(\C)C(OC)CC3CCC(C)C(O)(O3)C(O)C(=O)N3CCCCC3C(=O)O2)CC1OC (centres unmarked) [Comparative Example 1]
Percent residual (%) (stored in air at 40° C. for four weeks): 18.2%

CCOCCOC1CCC(CC(C)C2CC(=O)C(C)C(O)C(C)C(O)C(OC)C(=O)C(C)CC(C)/C=C/C=C/C=C(\C)C(OC)CC3CCC(C)C(O)(O3)C(O)C(=O)N3CCCCC3C(=O)O2)CC1OC (centres unmarked) [Example 1]
Percent residual (%) (sealed with deoxidant ZH-100 in aluminum pouch, stored at 40° C. for four weeks): 97.3%

— patent US20090054971A1, “DRUG ELUTING STENT SYSTEM AND MANUFACTURING PROCESS OF DRUG ELUTING STENT SYSTEM” (TERUMO KABUSHIKI KAISHA, priority 2005, published 2009)
